Several values for one entry are separate records, joined by “and”; a condition that tells them apart may be missing. Identical values can stand only once. Toxic doses and inconclusive results are not listed.

This experiment has as its system L1210 leukemia ip in BDF1 mice, survival T/C. The experiment can be described thus: NCI In Vivo Anticancer Drug Screen. Data for tumor model L1210 Leukemia (intraperitoneal) in B6D2F1 (BDF1) mice. The settings on record: endpoint: mean survival time, higher = longer survival. An outline of the steps:
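In this screen, tumor-bearing mice given compound are compared to those given vehicle, and their survival values are reported as a treated-to-control quotient.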

[1] abbreviates: dose: 100.0 mg/kg/injection, schedule: Q01DX009 (ip), vehicle: saline.
The mark [2] stands for this setting: dose: 200.0 mg/kg/injection, schedule: Q01DX009 (ip), vehicle: saline.
The mark [3] stands for this setting: dose: 400.0 mg/kg/injection, schedule: Q01DX009 (ip), vehicle: saline.
Where [4] appears, read: dose: 75.0 mg/kg/injection, schedule: Q01DX Z (ip), vehicle: carboxymethylcellulose (CMC).
[5] abbreviates: dose: 150.0 mg/kg/injection, schedule: Q01DX Z (ip), vehicle: carboxymethylcellulose (CMC).
Setting [6] is: dose: 100.0 mg/kg/injection, schedule: Q04DX002 (ip), vehicle: saline with Tween-80.
The mark [7] stands for this setting: dose: 200.0 mg/kg/injection, schedule: Q04DX002 (ip), vehicle: saline with Tween-80.
The mark [8] stands for this setting: dose: 400.0 mg/kg/injection, schedule: Q04DX002 (ip), vehicle: saline with Tween-80.
The mark [9] stands for this setting: dose: 100.0 mg/kg/injection, schedule: Q04DX003 (ip), vehicle: saline with Tween-80.
Where [10] appears, read: dose: 200.0 mg/kg/injection, schedule: Q04DX003 (ip), vehicle: saline with Tween-80.
Setting [11] is: dose: 400.0 mg/kg/injection, schedule: Q04DX003 (ip), vehicle: saline with Tween-80.

With `O=C(O)C1CCC(CC2CCC2)CC1` (stereo not given), the T/C reads like this: (dose: 100.0 mg/kg/injection, schedule: Q01DX001 (ip), vehicle: Klucel (hydroxypropylcellulose) (HPC)) 95 % of control; (dose: 100.0 mg/kg/injection, schedule: Q04DX003 (ip), vehicle: Klucel (hydroxypropylcellulose) (HPC)) 98 % of control; (dose: 200.0 mg/kg/injection, schedule: Q01DX001 (ip), vehicle: Klucel (hydroxypropylcellulose) (HPC)) 100 % of control; (dose: 200.0 mg/kg/injection, schedule: Q04DX003 (ip), vehicle: Klucel (hydroxypropylcellulose) (HPC)) 98 % of control; (dose: 400.0 mg/kg/injection, schedule: Q01DX001 (ip), vehicle: Klucel (hydroxypropylcellulose) (HPC)) 92 % of control; (dose: 400.0 mg/kg/injection, schedule: Q04DX003 (ip), vehicle: Klucel (hydroxypropylcellulose) (HPC)) 95 % of control.

On to `NC(N)=NCCCC(N=Cc1ccccc1)C(=O)O` (stereo not given), for which the T/C under setting [1] is 97 % of control, the T/C under setting [2] is 101 % of control and the T/C under setting [3] was 98 % of control.

With `O=NN(CCCN(N=O)C(=O)Nc1c[nH]c(=O)[nH]c1=O)C(=O)Nc1c[nH]c(=O)[nH]c1=O`, the T/C was 110 % of control (dose: 50.0 mg/kg/injection, schedule: Q01DX Z (ip), vehicle: carboxymethylcellulose (CMC)); 110 % of control under setting [4]; 115 % of control (dose: 100.0 mg/kg/injection, schedule: Q01DX Z (ip), vehicle: carboxymethylcellulose (CMC)); 111 % of control under setting [5]; 119 % of control (dose: 200.0 mg/kg/injection, schedule: Q01DX Z (ip), vehicle: carboxymethylcellulose (CMC)).

Regarding `CCOC1=C(C#N)CC2(CC1)c1ccccc1-c1ccccc12`, the T/C was 96 % of control (dose: 100.0 mg/kg/injection, schedule: Q01DX009 (ip), vehicle: Klucel (hydroxypropylcellulose) (HPC)); 95 % of control (dose: 200.0 mg/kg/injection, schedule: Q01DX009 (ip), vehicle: Klucel (hydroxypropylcellulose) (HPC)); 95 % of control (dose: 400.0 mg/kg/injection, schedule: Q01DX009 (ip), vehicle: Klucel (hydroxypropylcellulose) (HPC)).

Turning to `N#Cc1ccccc1CCl`, the T/C reads like this: (dose: 50.0 mg/kg/injection, schedule: Q01DX001 (ip), vehicle: carboxymethylcellulose (CMC)) 103 % of control; (dose: 100.0 mg/kg/injection, schedule: Q01DX001 (ip), vehicle: carboxymethylcellulose (CMC)) 97 % of control; (dose: 200.0 mg/kg/injection, schedule: Q01DX001 (ip), vehicle: carboxymethylcellulose (CMC)) 103 % of control; (dose: 400.0 mg/kg/injection, schedule: Q01DX001 (ip), vehicle: carboxymethylcellulose (CMC)) 107 % of control.

On to `Nc1cccc(CO)c1`, for which the T/C reads like this: under setting [6], 104 % of control; under setting [7], 90 % of control; under setting [8], 90 % of control.

For the compound `O=C1OC(c2ccccc2)=NC1c1ccccc1` (stereo not given), the T/C reads like this: under setting [1], 95 % of control; (dose: 100.0 mg/kg/injection, schedule: Q04DX003 (ip), vehicle: carboxymethylcellulose (CMC)) 101 % of control; under setting [2], 97 % of control; (dose: 200.0 mg/kg/injection, schedule: Q04DX003 (ip), vehicle: carboxymethylcellulose (CMC)) 95 % of control; under setting [3], 97 % of control; (dose: 400.0 mg/kg/injection, schedule: Q04DX003 (ip), vehicle: carboxymethylcellulose (CMC)) 97 % of control.

As to `Nc1ncnc2c1ncn2C1OC(CO)CC1O` (stereo not given), the T/C is 114 % of control (dose: 37.0 mg/kg/injection, schedule: Q01DX Z (ip), vehicle: carboxymethylcellulose (CMC)); 111 % of control (dose: 50.0 mg/kg/injection, schedule: Q01DX001 (ip), vehicle: saline); 111 % of control under setting [4]; 111 % of control (dose: 100.0 mg/kg/injection, schedule: Q01DX001 (ip), vehicle: saline); 114 % of control under setting [5]; 115 % of control (dose: 200.0 mg/kg/injection, schedule: Q01DX001 (ip), vehicle: saline). The T/C reads like this: (dose: 300.0 mg/kg/injection, schedule: Q01DX Z (ip), vehicle: carboxymethylcellulose (CMC)) 114 % of control and 115 % of control; (dose: 400.0 mg/kg/injection, schedule: Q01DX001 (ip), vehicle: saline) 123 % of control.

As for `CC(C)CCCC(C)C1CCC2C3CC(=O)OC4CC(Br)CCC4(C)C3CCC12C` (stereo not given), the T/C is 101 % of control under setting [9], 101 % of control under setting [10] and 102 % of control under setting [11].

Regarding `Cc1cc(=O)[nH]c(N(CCO)CCO)n1`, the T/C is 92 % of control (dose: 100.0 mg/kg/injection, schedule: Q01DX009 (ip), vehicle: saline with Tween-80); 94 % of control under setting [9]; 100 % of control (dose: 200.0 mg/kg/injection, schedule: Q01DX009 (ip), vehicle: saline with Tween-80); 96 % of control under setting [10]; 100 % of control (dose: 400.0 mg/kg/injection, schedule: Q01DX009 (ip), vehicle: saline with Tween-80); 100 % of control under setting [11].

For `O=C(Nc1ccc(C2=NCCCN2)cc1)Nc1cccc(C(=O)Nc2ccc(C3=NCCCN3)cc2)c1`, the T/C is 101 % of control (dose: 1.25 mg/kg/injection, schedule: Q01DX Z (ip), vehicle: carboxymethylcellulose (CMC)); 106 % of control (dose: 2.5 mg/kg/injection, schedule: Q01DX Z (ip), vehicle: carboxymethylcellulose (CMC)); 109 % of control (dose: 5.0 mg/kg/injection, schedule: Q01DX Z (ip), vehicle: carboxymethylcellulose (CMC)); 112 % of control (dose: 7.5 mg/kg/injection, schedule: Q01DX Z (ip), vehicle: carboxymethylcellulose (CMC)); 162 % of control (dose: 10.0 mg/kg/injection, schedule: Q01DX Z (ip), vehicle: carboxymethylcellulose (CMC)); 171 % of control (dose: 15.0 mg/kg/injection, schedule: Q01DX Z (ip), vehicle: carboxymethylcellulose (CMC)). In addition, the T/C is, setting by setting: (dose: 20.0 mg/kg/injection, schedule: Q01DX Z (ip), vehicle: carboxymethylcellulose (CMC)) 190 % of control; (dose: 30.0 mg/kg/injection, schedule: Q01DX Z (ip), vehicle: carboxymethylcellulose (CMC)) 118 % of control; (dose: 40.0 mg/kg/injection, schedule: Q01DX Z (ip), vehicle: carboxymethylcellulose (CMC)) 86 % of control; (dose: 62.0 mg/kg/injection, schedule: Q01DX Z (oral), vehicle: carboxymethylcellulose (CMC)) 102 % of control; (dose: 125.0 mg/kg/injection, schedule: Q01DX Z (oral), vehicle: carboxymethylcellulose (CMC)) 105 % of control; (dose: 250.0 mg/kg/injection, schedule: Q01DX Z (oral), vehicle: carboxymethylcellulose (CMC)) 102 % of control. Further, the T/C (dose: 500.0 mg/kg/injection, schedule: Q01DX Z (oral), vehicle: carboxymethylcellulose (CMC)) was 107 % of control.

On to `Cc1ccc(S(=O)(=O)OCCN2C(=O)NC(c3ccccc3)(c3ccccc3)C2=O)cc1`, for which the T/C is 104 % of control (dose: 3.1 mg/kg/injection, schedule: Q01DX009 (ip), vehicle: saline); 100 % of control (dose: 6.25 mg/kg/injection, schedule: Q01DX009 (ip), vehicle: saline); 104 % of control (dose: 12.5 mg/kg/injection, schedule: Q01DX009 (ip), vehicle: saline); 98 % of control (dose: 25.0 mg/kg/injection, schedule: Q01DX009 (ip), vehicle: saline); 100 % of control (dose: 50.0 mg/kg/injection, schedule: Q01DX009 (ip), vehicle: saline); 102 % of control under setting [1]. In addition, the T/C runs as follows: (dose: 150.0 mg/kg/injection, schedule: Q04DX003 (ip), vehicle: saline with Tween-80) 109 % of control; (dose: 225.0 mg/kg/injection, schedule: Q04DX003 (ip), vehicle: saline with Tween-80) 109 % of control; (dose: 335.0 mg/kg/injection, schedule: Q04DX003 (ip), vehicle: saline with Tween-80) 98 % of control.

Turning to `CCCCN(C(C)=O)c1nnc(NC(C)=O)s1`, the T/C under setting [6] was 102 % of control, the T/C under setting [7] was 98 % of control and the T/C under setting [8] is 98 % of control.

Regarding `CCCCCCCCCCN(CCCCCCCCCC)S(=O)(=O)c1ccc(OC)c([N+](=O)[O-])c1`, the T/C by setting is: (dose: 75.0 mg/kg/injection, schedule: Q01DX001 (ip), vehicle: other) 100 % of control; (dose: 150.0 mg/kg/injection, schedule: Q01DX001 (ip), vehicle: other) 93 % of control; (dose: 300.0 mg/kg/injection, schedule: Q01DX001 (ip), vehicle: other) 90 % of control.
